In ChEMBL document CHEMBL1131958, “Synthesis of bisquinolines and their in vitro ability to produce methemoglobin in canine hemolysate” (1999):
Active and inactive are the calls of the source. The rule behind the calls is not given here.

Legend:
Canis familiaris [1] = species on record: Canis familiaris; experiment: In vitro effect on methemoglobin formation in blood of dog at 5 mM concentration; assay type: functional, Canis lupus familiaris
Canis familiaris [2] = species on record: Canis familiaris; experiment: In vitro effect on methemoglobin formation in blood of dog at 1 mM concentration; Nil; assay type: functional; conditions: Canis lupus familiaris
Canis familiaris [3] = species on record: Canis familiaris; experiment: In vitro effect on methemoglobin formation in blood of dog at 5 mM concentration; Nil; assay type: functional; conditions: Canis lupus familiaris
Canis familiaris [4] = species on record: Canis familiaris; experiment: In vitro effect on methemoglobin formation in blood of dog at 1 mM concentration; assay type: functional, Canis lupus familiaris

SMILES	Methemoglobin (Canis familiaris [1]) [%]	Methemoglobin (Canis familiaris [2])	Methemoglobin (Canis familiaris [3])	Methemoglobin (Canis familiaris [1]; Canis lupus familiaris)	Methemoglobin (Canis familiaris [4]) [%]
O=[N+]([O-])c1cc2c(NCCCCNc3ccnc4cc(Cl)c([N+](=O)[O-])cc34)ccnc2cc1Cl	6.42	Nil	–	–	–
O=C(O)C(CCCCNc1ccnc2cc(Cl)ccc12)Nc1ccnc2cc(Cl)ccc12 (stereo not drawn)	–	Nil	Nil	–	–
CCN(CC)CCCC(C)Nc1ccnc2cc(Cl)ccc12 (stereo not drawn)	–	inactive	inactive	–	–
O=C(O)C(CCCNc1ccnc2cc(Cl)ccc12)Nc1ccnc2cc(Cl)ccc12 (stereo not drawn)	6.89	Nil	–	–	–
Clc1ccc2c(NCCNCCCCNCCNc3ccnc4cc(Cl)ccc34)ccnc2c1	3	Nil	–	–	–
Clc1ccc2c(NCCN3CCN(c4ccnc5cc(Cl)ccc45)CC3)ccnc2c1	–	Nil	–	Nil	–
N/C(=N\CCCC(Nc1ccnc2cc(Cl)ccc12)C(=O)O)Nc1ccnc2cc(Cl)ccc12 (stereo not drawn)	1.5	Nil	–	–	–
COc1cc(NC(C)CCCN)c2ncccc2c1 (stereo not drawn) [PRIMAQUINE]	87.6	–	–	–	11.52
Clc1ccc2c(NCCCCNc3ccnc4cc(Cl)ccc34)ccnc2c1	90.8	–	–	–	29.5
